Measurements from US20250152584A1, “NLRP3 INFLAMMASOME INHIBITOR AND USES THEREOF” (TransThera Sciences (Nanjing), Inc., priority 2022, published 2025).

Tests used:
[1] = Pharmacokinetic study in beagles; assay type: in vivo; conditions: beagle, dog, plasma, male beagles; for Cmax: read-out: Cmax po (peak concentration); for Tmax: read-out: Tmax po (peak time of plasma concentration); for clearance: read-out: Cl—obs iv (clearance rate) (converted); for Vd: read-out: Vss iv (volume of distribution); for bioavailability: iv 1.0 mg/kg / po 1.0 mg/kg, read-out: F % (absolute bioavailability)
Procedure: Experimental Example 4: Pharmacokinetic Study of Compounds in Beagles
Compound 174 was prepared into a solution with a mixed solvent formulated from 5% dimethyl sulfoxide, 20% (30% solutol) and 75% normal saline; the solution of this compound was administered to male beagles by gavage at a dose of 1.0 mg/kg; and the time points for blood collection were: 15 min, 30 min, 1 b, 2 h, 4 h, 6 b, 8 h, 10 h and 24 h. The solution of the compound was administered to male beagles by intravenous bolus at a dose of 1.0 mg/kg, and the time points for blood collection were as follows: 5 min, 15 min, 30 min, 1 h, 2 h, 4 h, 6 h, 8 h, 10 h, and 24 h.
Compound 177 and Compound 195 were prepared into solutions with a mixed solvent formulated from 5% dimethyl sulfoxide, 20% (30% solutol) and 75% normal saline, respectively; the solutions of these compounds were administered to male beagles by gavage at a dose of 1.0 mg/kg; and the time points for blood collection were: 15 min, 30 min, 1 h, 2 h, 4 h, 6 h, 8 h, 10 h and 24 h. The solution of the compound was administered to male beagles by intravenous bolus at a dose of 1.0 mg/kg, and the time points for blood collection were as follows: 5 min, 15 min, 30 min, 1 h, 2 h, 4 h, 6 h, 8 h, 10 h, and 24 h.
Approximately 400 μL of blood was collected through the medial cephalic vein of the forelimb and placed in an anticoagulant tube containing EDTA-K2. Blood samples were centrifuged at 12,000 rpm for 10 min at 4° C. to obtain plasma samples, and plasma was prepared within 30 min after blood collection. The plasma was stored in a −80° C. freezer before testing.

[2] = Pharmacokinetic study in C57BL/6J mice; assay type: in vivo; conditions: mouse, plasma, C57BL/6J female mice
Procedure: Experimental Example 2: Pharmacokinetic Study of Compounds in C57BL/6J Mice
Compound 100, Compound 54, Compound 174, Compound 179, and Compound 253 were prepared into solutions with a mixed solvent formulated from 5% dimethyl sulfoxide, 20% (30% solutol) and 75% normal saline, respectively; the solution of each compound was administered to C57BL/6J female mice by gavage at a dose of 10 mg/kg; and the time points for blood collection were: 15 min, 30 min, 1 h, 2 h, 4 h, 6 h, 8 h and 24 h. The solution of the compound was administered to C57BL/6J female mice by intravenous bolus at a dose of 5 mg/kg, and the time points for blood collection were as follows: 5 min, 15 min, 30 min, 1 h, 2 h, 4 h, 6 h, 8 h, and 24 h.
Compound 1 was prepared into a solution with a mixed solvent formulated from 5% DME, 20% (30% solutol) and 75% normal saline; the solution of this compound was administered to C57BL/6J female mice by gavage at a dose of 10 mg/kg, and the time points for blood collection were: 15 min, 30 min, 1 h, 2 h, 4 h, 6 h, 8 h, and 24 h. The solution of the compound was administered to C57BL/6J female mice by intravenous bolus at a dose of 5 mg/kg, and the time points for blood collection were as follows: 5 min, 15 min, 30 min, 1 h, 2 h, 4 h, 6 h, 8 h, and 24 h.
Compound 195 was prepared into a solution with a mixed solvent formulated from 5% dimethyl sulfoxide, 20% PEG400 and 75% normal saline; the solution of this compound was administered to C57BL/6J female mice by gavage at a dose of 10 mg/kg; and the time points for blood collection were 15 min, 30 min, 1 h, 2 h, 4 h, 6 h, 8 h, and 24 b. The solution of the compound was administered to C57BL/6J female mice by intravenous bolus at a dose of 5 mg/kg, and the time points for blood collection were as follows: 5 min, 15 min, 30 min, 1 h, 2 b, 4 h, 6 h, 8 h, and 24 h.
Approximately 100 μL of blood was collected through the retroorbital venous plexus, and was then placed in an anticoagulant tube containing EDTA-K2. Blood samples were centrifuged at 12,000 rpm for 10 min at 4° C. to obtain plasma samples, and plasma was prepared within 30 min after blood collection. The plasma was stored in a −80° C. freezer before testing.
• 1. The samples were taken from the −80° C. freezer, thawed naturally at room temperature, and then vortexed for 5 min • 2. 10 μL of a plasma sample was precisely pipetted from different individuals into a 1.5 mL centrifuge tube. • 3. 300 μL of an internal standard working solution (the acetonitrile solution of tolbutamide) at a concentration of […] was added and mixed well. • 4. After vortexing for 5 min, the mixture was centrifuged at 12,000 rpm for 5 min. • 5. 50 μL of the supernatant was accurately pipetted into a 96-well plate preloaded with water at 150 μL/well. • 6. Vortexing was performed for 5 min for sufficient mixing, and LC-MS/MS analysis was then conducted.
The results of the concentrations of the compounds under test were output using Analyst 1.6.3 of AB. Parameters such as mean, standard deviation, coefficient of variation was calculated by Microsoft Excel (parameters directly output by Analyst 1.6.3 needed no calculation), and PK parameters were calculated by WinNonlin Phenoix 8.2 software NCA (Tmax as the median).

[3] = po, gavage 1.0 mg/kg, read-out: AUClast po (area under the drug-time curve for 0-24 h)
[4] = po, gavage 1.0 mg/kg, read-out: tz1/2 po (terminal elimination half-life) (converted)
[5] = intravenous bolus 1.0 mg/kg, read-out: AUClast iv (area under the drug-time curve for 0-24 h)
[6] = intravenous bolus 1.0 mg/kg, read-out: tz1/2 iv (terminal elimination half-life) (converted)

Row | Compound | AUC(0-t) [1, 3] | Cmax ([1]; po, gavage 1.0 mg/kg) | Tmax ([1]; po, gavage 1.0 mg/kg) | half-life [1, 4] | AUC(0-t) [1, 5] | clearance ([1]; intravenous bolus 1.0 mg/kg) | Vd ([1]; intravenous bolus 1.0 mg/kg) | half-life [1, 6] | bioavailability [1] | Tmax ([2]; po, gavage 10 mg/kg, median, read-out: Tmax po (peak time of plasma concentration)) | AUC(0-t) ([2]; po, gavage 10 mg/kg, read-out: AUClast po (area under the drug-time curve for 0-24 h)) | Cmax ([2]; po, gavage 10 mg/kg, read-out: Cmax po (peak concentration)) | half-life ([2]; po, gavage 10 mg/kg, read-out: tz1/2 po (terminal elimination half-life) (converted)) | AUC(0-t) ([2]; intravenous bolus 5 mg/kg, read-out: AUClast iv (area under the drug-time curve for 0-24 h)) | clearance ([2]; intravenous bolus 5 mg/kg, read-out: Cl—obs iv (clearance rate) (converted)) | Vd ([2]; intravenous bolus 5 mg/kg, read-out: Vss iv (volume of distribution)) | half-life ([2]; intravenous bolus 5 mg/kg, read-out: tz1/2 iv (terminal elimination half-life) (converted)) | bioavailability ([2]; iv 5 mg/kg / po 10 mg/kg, read-out: F % (absolute bioavailability))
1 | CC#Cc1ccc(-c2nnc(N[C@@H]3CCCN(C)C3)nc2C)c(O)c1 [Compound 195] | 1900 ng·h/mL | 206 ng/mL | 4 h | 11 h | 2320 ng·h/mL | 6.58 mL/min/kg | 3.74 L/kg | 8.16 h | 90.7% | 1 h | 7860 ng·h/mL | 1230 ng/mL | 3.12 h | 3580 ng·h/mL | 23.2 mL/min/kg | 5.14 L/kg | 3.89 h | 110%
2 | C#Cc1ccc(-c2nnc(N[C@@H]3CCCN(C)C3)nc2C)c(O)c1 [Compound 177] | 1920 ng·h/mL | 293 ng/mL | 1 h | 5.9 h | 1240 ng·h/mL | 13 mL/min/kg | 5.53 L/kg | 5.58 h | 154% | – | – | – | – | – | – | – | – | –
